Assay results taken from patent US20170022171A1, “2,5-DISUBSTITUTED CYCLOPENTANECARBOXYLIC ACIDS AND THEIR USE” (Bayer Pharma Aktiengesellschaft, priority 2014, published 2017).

Legend:
Assay type in all cases: biochemical
MMP-3 = target: T1, MMP-3 (Homo sapiens, UniProt P08254); assay: In vitro MMP-3 inhibition test
T1 construct: purchased R&D Systems 513-MP
Excerpt: (§1) The MMP-mediated amidolytic cleavage of a suitable peptide substrate leads to an increase in fluorescent light here too. The signal intensity of the fluorescent light is directly proportional to the enzyme activity. The active concentration of a test compound at which half the enzyme is inhibited (50% signal intensity of the fluorescent light) is reported as the IC50 value.
Recombinant MMP-3 (from R&D Systems, 513-MP) is chemically activated in accordance with the manufacturer's instructions using APMA. 1 μl of the test compound to be analysed (as a solution in DMSO, suitable concentrations, for example, 1 nM to 30 μM) is pipetted into 24 μl of activated enzyme (final concentration, for example, 2 nM) in reaction buffer (50 mM Tris/HCl pH 7.5, 10 mM CaCl2, 150 mM NaCl, 0.05% Brij®-35) in a white 384-hole microtiter plate (MTP). The enzymatic reaction is started by adding the intramolecularly quenched Mca-Arg-Pro-Lys-Pro-Val-Glu-Nval-Trp-Arg-Lys(Dnp)-NH2 substrate (final concentration, for example, 10 μM; R&D Systems, ES-002), so as to result in a total test volume of 50 The course of the MMP-3 reaction is measured by measuring the fluorescence intensity (excitation 320 nm, emission 410 nm) over a suitable period of time (for example over 120 min at a temperature of 32° C.).

MMP-8 = target: T2, MMP-8 (Homo sapiens, UniProt P22894); assay: In vitro MMP-8 inhibition test
T2 construct: purchased R&D Systems 908-MP
T2 sequence (P22894 101-467): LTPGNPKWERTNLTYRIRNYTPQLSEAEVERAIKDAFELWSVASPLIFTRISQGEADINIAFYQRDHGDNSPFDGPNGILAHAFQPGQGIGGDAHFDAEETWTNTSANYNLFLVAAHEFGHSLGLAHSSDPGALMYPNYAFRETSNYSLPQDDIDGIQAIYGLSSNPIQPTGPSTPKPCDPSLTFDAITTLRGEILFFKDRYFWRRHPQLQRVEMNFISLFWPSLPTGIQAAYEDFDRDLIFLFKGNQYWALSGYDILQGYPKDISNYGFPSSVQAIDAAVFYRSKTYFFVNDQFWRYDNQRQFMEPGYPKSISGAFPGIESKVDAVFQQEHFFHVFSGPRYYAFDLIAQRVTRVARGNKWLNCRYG
Excerpt: as §1
(§2) Recombinant MMP-8 (from R&D Systems, 908-MP) is chemically activated in accordance with the manufacturer's instructions using APMA. 1 μl of the test compound to be analysed (as a solution in DMSO, suitable concentrations, for example, 1 nM to 30 μM) is pipetted into 24 μl of activated enzyme (final concentration, for example, 0.5 nM) in reaction buffer (50 mM Tris/HCl pH 7.5, 10 mM CaCl2, 150 mM NaCl, 0.05% Brij®-35) in a white 384-hole microtiter plate (MTP). The enzymatic reaction is started by adding the intramolecularly quenched Mca-Pro-Leu-Gly-Leu-Dpa(Dnp)-Ala-Arg-NH2 substrate (final concentration, for example, 10 μM; R&D Systems, ES-001), so as to result in a total test volume of 50 μl. The course of the MMP-8 reaction is measured by measuring the fluorescence intensity (excitation 320 nm, emission 410 nm) over a suitable period of time (for example over 120 min at a temperature of 32° C.).

MMP-10 = target: T3, MMP-10 (Homo sapiens, UniProt P09238); assay: In vitro MMP-10 inhibition test
T3 construct: purchased R&D Systems 910-MP
T3 sequence (P09238 99-476): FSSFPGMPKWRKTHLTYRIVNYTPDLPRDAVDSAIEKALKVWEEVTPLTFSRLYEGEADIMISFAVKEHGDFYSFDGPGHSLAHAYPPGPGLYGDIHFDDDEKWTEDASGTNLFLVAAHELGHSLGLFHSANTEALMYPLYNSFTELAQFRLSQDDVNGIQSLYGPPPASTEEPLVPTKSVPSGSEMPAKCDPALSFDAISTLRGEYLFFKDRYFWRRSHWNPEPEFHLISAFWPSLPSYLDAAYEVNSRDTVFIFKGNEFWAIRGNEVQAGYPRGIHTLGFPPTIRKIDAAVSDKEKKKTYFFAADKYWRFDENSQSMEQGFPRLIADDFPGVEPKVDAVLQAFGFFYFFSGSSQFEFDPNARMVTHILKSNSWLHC
Excerpt: as §1
Recombinant MMP-10 (from R&D Systems, 910-MP) is chemically activated in accordance with the manufacturer's instructions using APMA. 1 μl of the test compound to be analysed (as a solution in DMSO, suitable concentrations, for example, 1 nM to 30 μM) is pipetted into 24 μl of activated enzyme (final concentration, for example, 2 nM) in reaction buffer (50 mM Tris/HCl pH 7.5, 10 mM CaCl2, 150 mM NaCl, 0.05% Brij®-35) in a white 384-hole microtiter plate (MTP). The enzymatic reaction is started by adding the intramolecularly quenched Mca-Arg-Pro-Lys-Pro-Val-Glu-Nval-Trp-Arg-Lys(Dnp)-NH2 substrate (final concentration, for example, 10 μM; R&D Systems, ES-002), so as to result in a total test volume of 50 μl. The course of the MMP-10 reaction is measured by measuring the fluorescence intensity (excitation 320 nm, emission 410 nm) over a suitable period of time (for example over 120 min at a temperature of 32° C.).

MMP-13 = target: T4, MMP-13 (Homo sapiens, UniProt P45452); assay: In vitro MMP-13 inhibition test
T4 construct: purchased R&D Systems 511-MP
Excerpt: as §1
as §2, with “MMP-13” for “MMP-8”, “511-MP)” for “908-MP)”, “0.1” for “0.5”, “50” for “50 μl.”

MMP-16 = target: T5, MMP-16 (Homo sapiens, UniProt P51512); assay: In vitro MMP-16 inhibition test
T5 construct: purchased R&D Systems 1785-MP
T5 sequence (P51512 120-564 limits assumed): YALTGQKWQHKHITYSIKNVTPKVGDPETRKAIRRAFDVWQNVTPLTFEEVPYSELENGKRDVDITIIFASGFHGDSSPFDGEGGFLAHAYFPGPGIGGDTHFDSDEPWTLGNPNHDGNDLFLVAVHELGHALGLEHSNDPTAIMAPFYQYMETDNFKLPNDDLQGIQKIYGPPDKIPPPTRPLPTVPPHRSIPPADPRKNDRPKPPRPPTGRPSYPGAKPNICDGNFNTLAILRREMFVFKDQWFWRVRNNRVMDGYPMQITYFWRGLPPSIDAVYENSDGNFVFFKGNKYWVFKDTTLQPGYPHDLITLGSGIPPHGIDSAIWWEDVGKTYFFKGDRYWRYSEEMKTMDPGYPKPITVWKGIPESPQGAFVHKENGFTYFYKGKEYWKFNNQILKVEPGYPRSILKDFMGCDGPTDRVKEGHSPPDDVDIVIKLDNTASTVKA
Excerpt: as §1
Recombinant MMP-16 (from R&D Systems, 1785-MP) is enzymatically activated in accordance with the manufacturer's instructions using recombinant furin (from R&D Systems, 1503-SE). 1 μl of the test compound to be analysed (as a solution in DMSO, suitable concentrations e.g. 1 nM to 30 μM) is pipetted into 24 μl of activated enzyme (final concentration e.g. 1 nM) in reaction buffer (50 mM Tris/HCl pH 7.5, 10 mM CaCl2, 150 mM NaCl, 0.05% Brij®-35) in a white 384-hole microtiter plate (MTP). The enzymatic reaction is started by adding the intramolecularly quenched Mca-Lys-Pro-Leu-Gly-Leu-Dpa(Dnp)-Ala-Arg-NH2 substrate (final concentration, for example, 5 μM; R&D Systems, ES-010), so as to result in a total test volume of 50 The course of the MMP-16 reaction is measured by measuring the fluorescence intensity (excitation 320 nm, emission 410 nm) over a suitable period of time (for example over 120 min at a temperature of 32° C.).

T1 sequence (P08254 100-477): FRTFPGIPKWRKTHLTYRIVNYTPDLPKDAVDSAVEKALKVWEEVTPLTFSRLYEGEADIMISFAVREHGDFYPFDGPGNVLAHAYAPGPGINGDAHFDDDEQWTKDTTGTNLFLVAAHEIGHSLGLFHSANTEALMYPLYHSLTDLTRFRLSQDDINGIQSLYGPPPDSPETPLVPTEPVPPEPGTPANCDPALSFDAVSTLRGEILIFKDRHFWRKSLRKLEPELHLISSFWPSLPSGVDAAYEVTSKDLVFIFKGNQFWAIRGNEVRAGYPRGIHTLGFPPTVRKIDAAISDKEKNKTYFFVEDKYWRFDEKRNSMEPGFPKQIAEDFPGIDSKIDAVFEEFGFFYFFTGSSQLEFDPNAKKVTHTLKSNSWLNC

O=C(O)[C@H]1[C@H](Cn2nnc3ccccc3c2=O)CC[C@@H]1C(=O)c1ccc(OCc2ccc(F)cc2)cc1 (racemic) [Example 1, (+/−)-(1RS,2RS,5SR)-2-{4-[(4-Fluorobenzyl)oxy]benzoyl}-5-[(4-oxo-1,2,3-benzotriazin-3(4H)-yl)methyl]cyclopentanecarboxylic acid]
IC50 (MMP-3): 170 nM
IC50 (MMP-8): 2.5 nM
IC50 (MMP-10): 33 nM
IC50 (MMP-13): 11 nM
IC50 (MMP-16): 130 nM

O=C(O)[C@H]1[C@H](Cn2nnc3ccccc3c2=O)CC[C@@H]1C(=O)c1ccc(OCc2cccc(Cl)c2)cc1 (racemic) [Example 2, (+/−)-(1RS,2RS,5SR)-2-{4-[(3-Chlorobenzyl)oxy]benzoyl}-5-[(4-oxo-1,2,3-benzotriazin-3(4H)-yl)methyl]cyclopentanecarboxylic acid]
IC50 (MMP-3): 2100 nM
IC50 (MMP-8): 440 nM
IC50 (MMP-10): 310 nM
IC50 (MMP-13): 400 nM
IC50 (MMP-16): 1000 nM

O=C(O)[C@H]1[C@H](Cn2nnc3ccccc3c2=O)CC[C@@H]1C(=O)c1ccc(OCc2ccc(Cl)c(Cl)c2)cc1 (racemic) [Example 3, (+/−)-(1RS,2RS,5SR)-2-{4-[(3,4-Dichlorobenzyl)oxy]benzoyl}-5-[(4-oxo-1,2,3-benzotriazin-3(4H)-yl)methyl]cyclopentanecarboxylic acid]
IC50 (MMP-3): 1500 nM
IC50 (MMP-8): 260 nM
IC50 (MMP-10): 430 nM
IC50 (MMP-13): 340 nM
IC50 (MMP-16): 4000 nM

O=C(O)[C@H]1[C@H](Cn2nnc3ccccc3c2=O)CC[C@@H]1C(=O)c1ccc(OCC2CCCC2)cc1 (racemic) [Example 4, (+/−)-(1RS,2RS,5SR)-2-[4-(Cyclopentylmethoxy)benzoyl]-5-[(4-oxo-1,2,3-benzotriazin-3(4H)-yl)methyl]cyclopentanecarboxylic acid]
IC50 (MMP-3): 1100 nM
IC50 (MMP-8): 14 nM
IC50 (MMP-10): 110 nM
IC50 (MMP-13): 58 nM
IC50 (MMP-16): 170 nM

O=C(O)[C@H]1[C@H](Cn2nnc3ccccc3c2=O)CC[C@@H]1C(=O)c1ccc(OCCC2CCCCC2)cc1 (racemic) [Example 5, (+/−)-(1RS,2RS,5SR)-2-[4-(2-Cyclohexylethoxy)benzoyl]-5-[(4-oxo-1,2,3-benzotriazin-3(4H)-yl)methyl]cyclopentanecarboxylic acid]
IC50 (MMP-3): 1500 nM
IC50 (MMP-8): 250 nM
IC50 (MMP-10): 93 nM
IC50 (MMP-13): 350 nM
IC50 (MMP-16): 2500 nM

O=C(O)[C@H]1[C@H](Cn2nnc3ccc(C(F)(F)F)cc3c2=O)CC[C@@H]1C(=O)c1ccc(OCc2ccccc2)cc1 (racemic) [Example 11, (+/−)-(1RS,2RS,5SR)-2-[4-(Benzyloxy)benzoyl]-5-{[4-oxo-6-(trifluoromethyl)-1,2,3-benzotriazin-3(4H)-yl]methyl}cyclopentanecarboxylic acid]
IC50 (MMP-3): 100 nM
IC50 (MMP-8): 3.2 nM
IC50 (MMP-10): 16 nM
IC50 (MMP-13): 88 nM
IC50 (MMP-16): 4500 nM

O=C(O)[C@H]1[C@H](Cn2nnc3ccc(C(F)(F)F)cc3c2=O)CC[C@@H]1C(=O)c1ccc(OCc2ccc(F)cc2)cc1 (racemic) [Example 12, (+/−)-(1RS,2RS,5SR)-2-{4-[(4-Fluorobenzyl)oxy]benzoyl}-5-{[4-oxo-6-(trifluoromethyl)-1,2,3-benzotriazin-3(4H)-yl]methyl}cyclopentanecarboxylic acid]
IC50 (MMP-3): 28 nM
IC50 (MMP-8): 0.67 nM
IC50 (MMP-10): 15 nM
IC50 (MMP-13): 39 nM
IC50 (MMP-16): 86 nM

Cc1cccc(COc2ccc(C(=O)[C@H]3CC[C@@H](Cn4nnc5ccc(C(F)(F)F)cc5c4=O)[C@@H]3C(=O)O)cc2)c1 (racemic) [Example 15, (+/−)-(1RS,2RS,5SR)-2-{4-[(3-Methylbenzyl)oxy]benzoyl}-5-{[4-oxo-6-(trifluoromethyl)-1,2,3-benzotriazin-3(4H)-yl]methyl}cyclopentanecarboxylic acid]
IC50 (MMP-3): 220 nM
IC50 (MMP-8): 26 nM
IC50 (MMP-10): 26 nM
IC50 (MMP-13): 640 nM
IC50 (MMP-16): 520 nM

O=C(O)[C@H]1[C@H](Cn2nnc3ccc(C(F)(F)F)cc3c2=O)CC[C@@H]1C(=O)c1ccc(OCc2cccc(C(F)(F)F)c2)cc1 (racemic) [Example 18, (+/−)-(1RS,2SR,5RS)-2-{[4-Oxo-6-(trifluoromethyl)-1,2,3-benzotriazin-3(4H)-yl]methyl}-5-(4-{[3-(trifluoromethyl)benzyl]oxy}benzoyl)cyclopentanecarboxylic acid]
IC50 (MMP-3): 1000 nM
IC50 (MMP-8): 61 nM
IC50 (MMP-10): 200 nM
IC50 (MMP-13): 1400 nM
IC50 (MMP-16): 4000 nM

O=C(O)[C@H]1[C@H](Cn2nnc3ccc(C(F)(F)F)cc3c2=O)CC[C@@H]1C(=O)c1ccc(OCCCc2ccccc2)cc1 (racemic) [Example 39, (+/−)-(1RS,2SR,5RS)-2-{[4-Oxo-6-(trifluoromethyl)-1,2,3-benzotriazin-3(4H)-yl]methyl}-5-[4-(3-phenylpropoxy)benzoyl]cyclopentanecarboxylic acid]
IC50 (MMP-3): 420 nM
IC50 (MMP-8): 290 nM
IC50 (MMP-10): 170 nM
IC50 (MMP-13): 1600 nM
IC50 (MMP-16): 14000 nM

O=C(O)[C@H]1[C@H](Cn2nnc3ccc(C(F)(F)F)cc3c2=O)CC[C@@H]1C(=O)c1ccc(OCC2CCCCC2)cc1 (racemic) [Example 40, (+/−)-(1RS,2RS,5SR)-2-[4-(Cyclohexylmethoxy)benzoyl]-5-{[4-oxo-6-(trifluoromethyl)-1,2,3-benzotriazin-3(4H)-yl]methyl}cyclopentanecarboxylic acid]
IC50 (MMP-3): 180 nM
IC50 (MMP-8): 6.3 nM
IC50 (MMP-10): 21 nM
IC50 (MMP-13): 380 nM
IC50 (MMP-16): 920 nM

O=C(O)[C@H]1[C@H](Cn2nnc3ccc(C(F)(F)F)cc3c2=O)CC[C@@H]1C(=O)c1ccc(OCCCC2CCCCC2)cc1 (racemic) [Example 56, (+/−)-(1RS,2RS,5SR)-2-{4-(3-Cyclohexylpropoxy)benzoyl}-5-{[4-oxo-6-(trifluoromethyl)-1,2,3-benzotriazin-3(4H)-yl]methyl}cyclopentanecarboxylic acid]
IC50 (MMP-3): 2000 nM
IC50 (MMP-8): 580 nM
IC50 (MMP-10): 250 nM
IC50 (MMP-13): 2400 nM
IC50 (MMP-16): > 40000 nM
